Type in all cases: cell-based
Assay [1] relates to normal skin fibroblast (WS1) cell line. The assay is described as follows: Cytotoxicity assay (resazurin reduction test), WS1. Conditions: Homo sapiens, WS1 healthy cells, 48 h incubation, read-out: IC50 (μM ± SD) WS1. On the procedure: (§1) Lung carcinoma (A549), colon adenocarcinoma (DLD-1) and normal skin fibroblast (WS1) human cell lines were purchased from the American Type Culture Collection (ATCC). All cell lines were cultured in minimum essential medium containing Earle’s salts and L-glutamine (Mediatech Cellgro, VA), to which 10% fetal bovine serum (Hyclone), vitamins (1X), penicillin (100 I.U./mL), streptomycin (100 μg/ml), essential amino acids (1X) and sodium pyruvate (1X) (Mediatech Cellgro, VA) were added. Cells were kept at 37°C in a humidified environment containing 5% CO2.
(§2) Exponentially growing cells were plated at a density of 5 × 10^3 cells per well in 96-well microplates (Costar, Corning inc.) in 100 µl of culture medium and were allowed to adhere for 16 hours before treatment. Then, 100 µl of increasing concentrations of extract or pure compounds dissolved in culture medium and DMSO (Sigma-Aldrich) were added. The final concentration of solvent in the culture medium was maintained at 0.25% (v/v) to avoid solvent toxicity. Cells were incubated for 48 h in the absence or in the presence of extract. Cytotoxicity was assessed using the resazurin reduction test as described by O’Brien) Fluorescence was measured on an automated 96-well Fluoroskan Ascent Fl plate reader (Labsystems) using an excitation wavelength of 530 nm and an emission wavelength of 590 nm. Cytotoxicity was expressed as the concentration of extract or compound inhibiting cell growth by 50% (IC50).

For assay [2], the system named is lung carcinoma (A549) cell line. Put plainly: Cytotoxicity assay (resazurin reduction test), A549. The note with it: Homo sapiens, A549 cells, 48 h incubation, read-out: IC50 (μM ± SD) A549. On the procedure: as §1, §2
Assay [3] concerns colon adenocarcinoma (DLD-1) cell line. The assay is described as follows: Cytotoxicity assay (resazurin reduction test), DLD-1. The note with it: Homo sapiens, DLD-1 cells, 48 h incubation, read-out: IC50 (μM ± SD) DLD-1. On the procedure: as §1, §2
A general note: The colour change of resazurin is a common sign of viable cells or microbes.

Turning to `O=c1[nH]cc(F)c(=O)[nH]1` [5-fluorouracil, reference compound], the IC50 – broadly, the concentration needed to halve the response being measured – in assay [1] is 20 ± 2 µM; in assay [2] it was 48 ± 18 µM; in assay [3] it was 11 ± 2 µM.
Regarding `CC1CCC2(OC1)OC1CC3C4CC(O)C5CC(OC6OC(CO)C(OC7OC(CO)C(O)C(OC8OCC(O)C(O)C8O)C7OC7OC(CO)C(O)C(O)C7O)C(O)C6O)C(O)CC5(C)C4CCC3(C)C1C2C` (centres unmarked) [Aginoside (3), aginoside], the figures for the IC50 in assay [1], in assay [2] and in assay [3] were 3.6 ± 0.2 µM, 5.8 ± 0.9 µM and 7.9 ± 0.5 µM, respectively.
`C[C@@H]1CC[C@@]2(OC1)O[C@H]1C[C@H]3[C@@H]4C[C@@H](O)[C@H]5C[C@@H](O[C@@H]6O[C@H](CO)[C@H](O[C@@H]7O[C@H](CO)[C@@H](O)[C@H](O[C@@H]8OC[C@@H](O)[C@H](O)[C@H]8O)[C@H]7O[C@@H]7O[C@H](CO)[C@@H](O)[C@H](O)[C@H]7O)[C@H](O)[C@H]6O)CC[C@]5(C)[C@H]4CC[C@]3(C)[C@H]1[C@@H]2C` [Compound 4, (25R)-5α-spirostane-3β,6β-diol 3-O-β-D-glucopyranosyl-(1→2)-[β-D-xylopyranosyl-(1→3)]-β-D-glucopyranosyl-(1→4)-β-D-galactopyranoside]: the IC50 in assay [1] was 3.1 ± 0.1 µM; in assay [2], 9 ± 1 µM; in assay [3], 13 ± 1 µM.
For `C[C@@H]1CC[C@@]2(OC1)O[C@H]1C[C@H]3[C@@H]4C[C@@H](O)[C@H]5C[C@@H](O[C@@H]6O[C@H](CO)[C@H](O[C@@H]7O[C@H](CO)[C@@H](O)[C@H](O)[C@H]7O[C@@H]7O[C@H](CO)[C@@H](O)[C@H](O)[C@H]7O)[C@H](O)[C@H]6O)[C@H](O)C[C@]5(C)[C@H]4CC[C@]3(C)[C@H]1[C@@H]2C` [Compound 6, (25R)-5α-spirostane-2α,3β,6β-triol 3-O-β-D-glucopyranosyl-(1→2)-β-D-glucopyranosyl-(1→4)-β-D-galactopyranoside], the IC50 in assay [1] worked out at 14.5 ± 0.5 µM; in assay [2] it was 22 ± 2 µM; in assay [3] it was 22 ± 2 µM.
`C[C@@H]1CC[C@@]2(OC1)O[C@H]1C[C@H]3[C@@H]4C[C@@H](O)[C@H]5C[C@@H](O[C@@H]6O[C@H](CO)[C@H](O[C@@H]7O[C@H](CO)[C@@H](O)[C@H](O[C@@H]8O[C@H](CO)[C@@H](O)[C@H](O)[C@H]8O)[C@H]7O[C@@H]7O[C@H](CO)[C@@H](O)[C@H](O[C@@H]8O[C@H](CO)[C@@H](O)[C@H](O)[C@H]8O)[C@H]7O)[C@H](O)[C@H]6O)CC[C@]5(C)[C@H]4CC[C@]3(C)[C@H]1[C@@H]2C` [Compound 7, (25R)-5α-spirostane-3β,6β-diol 3-O-β-D-glucopyranosyl-(1→3)-β-D-glucopyranosyl-(1→2)-[β-D-glucopyranosyl-(1→3)]-β-D-glucopyranosyl-(1→4)-β-D-galactopyranoside]: the IC50 in assay [1] worked out at 7.7 ± 0.2 µM; in assay [2] it was 7.8 ± 0.4 µM; in assay [3], 8.9 ± 0.2 µM.
In the case of `CC1CCC2(OC1)OC1CC3C4CC(O)C5CC(OC6OC(CO)C(OC7OC(CO)C(O)C(OC8OC(CO)C(O)C(O)C8O)C7OC7OC(CO)C(O)C(O)C7O)C(O)C6O)CCC5(C)C4CCC3(C)C1C2C` (centres unmarked) [Eruboside B (2), eruboside B], the 50% inhibitory concentration (IC50) in assay [1] worked out at 3.6 ± 0.2 µM; in assay [2], 5.3 ± 0.5 µM; in assay [3] it was 8.2 ± 0.4 µM.
`COc1cc([C@@H]2c3cc4c(cc3[C@@H](O[C@@H]3O[C@@H]5CO[C@@H](C)O[C@H]5[C@H](O)[C@H]3O)[C@H]3COC(=O)[C@H]23)OCO4)cc(OC)c1O` [Etoposide, reference compound]: the figures for the IC50 in assay [2] and in assay [3] were 1.1 ± 0.1 µM and 4.8 ± 0.8 µM, respectively.
With `C[C@@H]1CC[C@@]2(OC1)O[C@H]1C[C@H]3[C@@H]4C[C@@H](O)[C@H]5C[C@@H](O[C@@H]6O[C@H](CO)[C@H](O[C@@H]7O[C@H](CO)[C@@H](O)[C@H](O[C@@H]8O[C@H](CO)[C@@H](O)[C@H](O)[C@H]8O)[C@H]7O[C@@H]7O[C@H](CO)[C@@H](O)[C@H](O[C@@H]8O[C@H](CO)[C@@H](O)[C@H](O)[C@H]8O)[C@H]7O)[C@H](O)[C@H]6O)[C@H](O)C[C@]5(C)[C@H]4CC[C@]3(C)[C@H]1[C@@H]2C` [Leucospiroside A (5), (25R)-5α-spirostane-2α,3β,6β-triol 3-O-β-glucopyranosyl-(1→3)-β-glucopyranosyl-(1→2)-[β-glucopyranosyl-(1→3)]-β-glucopyranosyl-(1→4)-β-galactopyranoside], the figures for the IC50 in assay [1], in assay [2] and in assay [3] were 4.55 ± 0.07 µM, 5 ± 0.1 µM and 7.2 ± 0.1 µM, respectively.
Consider `CC1CCC2(OC1)OC1CC3C4CC(O)C5CC(OC6OC(CO)C(OC7OC(CO)C(O)C(OC8OC(CO)C(O)C(O)C8O)C7OC7OC(CO)C(O)C(O)C7O)C(O)C6O)C(O)CC5(C)C4CCC3(C)C1C2C` (centres unmarked) [Yayoisaponin C (1), yayoisaponin C], for which the values for the IC50 in assay [1], in assay [2] and in assay [3] were 3 ± 0.2 µM, 3.7 ± 0.7 µM and 5.6 ± 0.2 µM, respectively.

Source of the values: PMC6245281, “Cytotoxic Steroidal Saponins from the Flowers of Allium leucanthum” (Molecules, 2008).
